Tested on: Purified tubulin with GST-tagged CPAP PN2-3 (pull-down)
Assay: GST-PN2-3 pull-down, semi-quantitative Western blot
Format: binding
Conditions: protein-protein interaction inhibition

IC50: ~441 nM
SMILES: COc1ncc2cc3ccccc3nc2c1C#N [CCB02, 3‐Methoxybenzo[b][1,6]naphthyridine‐4‐carbonitrile]

Source: PMC6331730 (The EMBO Journal, 2018)
